Data published in PMC10574532, “Revisiting Supersaturation of a Biopharmaceutical Classification System IIB Drug: Evaluation via a Multi-Cup Dissolution Approach and Molecular Dynamic Simulation” (Molecules, 2023).
≈ marks a conversion by molar mass, not a printed value.

Experiments:
[1] = Supersaturation-precipitation and absorption in the dynamic gastrointestinal model (DGIM); type: physicochemical
Protocol: The DGIM is achieved through a system consisting of 3 dissolution cups, which represent stomach, duodenum, and jejunum, respectively, filled with corresponding biorelevant fluid. N-octanol serves as the absorptive phase. The pumps facilitate fluid transfer, as depicted by arrows in Figure 9. In situ drug concentration is determined using fiber optical probes, and dynamic pH value of the aqueous fluid is monitored by pH electrodes. The parameters of DGIM can be adjusted to meet some special physiological conditions.
In this study, most of the parameters were based on the GIS proposed by Hens et al.. The pH values in the three cups were adjusted to 2.0, 5.9, and 6.1, respectively, to simulate the physiological digestive fluid in the stomach, duodenum, and jejunum of the fasted rats. […] The secretions used were biorelevant fluids that had been concentrated four times and pumped at a rate of 1 mL/min. Considering an average gastric half-emptying time ( th ) of approximately eight minutes, pump A transported gastric fluid into the duodenal cup at this first-order rate. Ensuring that the volume of biorelevant fluid in the duodenal cup was maintained at a constant level of 50 mL, any excess fluid was transported to the jejunal cup through pump B. Therefore, we can represent the rates va for pump A and vb for pump B at time t using following equations:(5) va=ln2×Vg,0×exp−ln2×t/th+1 (6) vb=va+1
The pump rate was regulated by a mono-chip computer, which was programmed to dynamically adjust the rate every second in accordance with first-order kinetics. […] The pumps worked until 40 min because, at that time, the solution in the gastric cup was less than 10 mL. However, the experiment continued for 3 h. The paddles were stirred at a rate of 50 rpm. All the cups were in a water bath at 37 °C.
Fiber optic probes with a 1 mm tip were connected to the instrument and employed for the detection of the 270–275 nm wavelength band. This detection specifically targeted the area under the curve (AUC) of the second derivatized absorbance curves. Calibration was performed using the accumulated addition method. The standard curves encompassed a wide concentration range in the dissolution process while ensuring linearity with an r^2 > 0.999.

[2] = IVIVC prediction based on DGIM in vitro absorption data; set-up: species or system Male Sprague Dawley rats; conditions: predicted through IVIVC from DGIM
Protocol: (§1) The in vitro–in vivo correlation (IVIVC) was performed using Phoenix 8.1 IVIVC Toolkit (Certara, Princeton, NJ, USA). […] Double Weibull Dissolution Model was selected for fitting both dissolution data from the absorptive phase of DGIM and USP II. The absorption data were obtained via deconvolution analysis of the drug plasma concentration–time curves. The reference formulation for deconvolution to estimate oral absorption was based on the in vivo data of the i.v. group. Additionally, both control group and PVPVA group’s in vitro data were used to establish a correlation between dissolved fraction and absorbed fraction, while the HPMC group’s data served as external validation. The maximum number of unit impulse response exponentials defaulted to three. With WinNonlin Generated Initial Parameter and Winnonlin Bounds, the best correlation model was selected according to the lowest AIC. Validation parameters included AUClast calculated with linear trapezoidal method along with linear interpolation averaging as mean values were adopted. The process of prediction followed the same parameters above. The prediction error (PE) was evaluated following the FDA’s guidance.

In vivo pharmacokinetics = experiment: In vivo pharmacokinetics; set-up: species or system Male Sprague Dawley rats; conditions: plasma, rat
Protocol: The animal study was conducted in accordance with the National Research Council’s Guide for the Care and Use of Laboratory Animals and approved by the Ethics Committee of Chengdu University of Traditional Chinese Medicine (Approval Code: 2021-76). All procedures were performed in compliance with relevant regulations and guidelines. Male Sprague Dawley rats weighing 180–220 g were fasted overnight (12 h) with free access to water, then randomly assigned to 4 groups (n = 6). […] Approximately 50 μL of blood samples were collected into EDTA-K2-treated Eppendorf tubes at time points ranging from 0.083, 0.25, 0.5, 1, 2, 4, and 6 to 10 h after dosing. The blood samples were centrifuged at 2000× g and 4 °C for 10 min, followed by collection and storage of the supernatant plasma at −20 °C until analysis. […] A protein precipitation method was employed to pretreat 10 μL plasma with 430 μL acetonitrile, 50 μL internal standard solution (gefitinib), and 10 μL mobile phase. After centrifugation at 10,000× g for 10 min at 4 °C, the supernatant was injected into the apparatus and then separated by a Thermo Hypersil C18 chromatographic column (3 μm, 2.1 mm × 50 mm) at 40 °C. […] Phoenix 8.1 WinNonlin Toolkit (Certara, Princeton, NJ, USA) was employed to conduct the non-compartment model of pharmacokinetic analysis.

[3] = IVIVC prediction based on USP II in vitro absorption data; set-up: species or system Male Sprague Dawley rats; conditions: predicted through IVIVC from USP II
Protocol: as §1

[4] = phosphate buffer ref 19; cited from earlier work
[5] = pH-dependent equilibrium solubility of ketoconazole in biorelevant fluids (FaSSIF) with or without precipitation inhibitor; type: physicochemical; conditions: modified Henderson-Hasselbalch fit, 37 °C
Protocol: Specifically, FaSSIF was prepared with different proportions of 0.2 mol/L disodium hydrogen phosphate (Na2HPO4) solution and 0.1 mol/L citric acid (C6H8O7) solution, with commercial standard FaSSIF powder. […] The final pH of each solution was measured before centrifugation at 10,000× g for 10 min at 37 °C. […] A sample volume of 10 μL was injected and subsequently separated on a Kromasil C18 column (5 μm, 4.6 × 250 mm) maintained at a temperature of 30 °C. The mobile phase consisted of a modified phosphoric acid solution containing 10 mM KH2PO4 in water (pH adjusted to 3.0), along with acetonitrile in a ratio of 50:50 (v/v). The flow rate employed was set at 1 mL/min while detection occurred at a wavelength of 254 nm.

[6] = aqueous phase of the duodenal cup

For CC(=O)N1CCN(c2ccc(OCC3COC(Cn4ccnc4)(c4ccc(Cl)cc4Cl)O3)cc2)CC1 (centres unmarked) [ketoconazole, Ketoconazole], the “DSAUC (area under the degree of supersaturation over time curve)” value ([1]; Duodenal) was 3.715, the “DSAUC (area under the degree of supersaturation over time curve)” value ([1]; Jejunal) was 5.452 and the major precipitation time [1, 6] was 19 min. The “maximum concentration of ketoconazole” value [1, 6] was 1049 µg/mL, the “maximum concentration of ketoconazole” value ([1]; jejunal aqueous phase) was 282 µg/mL and the “AUC, Prediction” value [2] was 114,652 h·ng·mL^−1. For the same compound, the “Cmax, Prediction” value [2] was 45,529 ng·mL^−1, the bioavailability (In vivo pharmacokinetics; male, Sprague Dawley, oral 10 mg/kg vs i.v. 2.5 mg/kg, read-out: absolute bioavailability) was 70% and the AUC (In vivo pharmacokinetics; male, Sprague Dawley, po, 10 mg/kg, read-out: AUC, Observation) was 113 µg·h/mL. For the same compound, the Cmax (In vivo pharmacokinetics; male, Sprague Dawley, po, 10 mg/kg, read-out: Cmax, Observation) was 41300 ng/mL, the “AUC, Observation” value (In vivo pharmacokinetics; oral 10 mg/kg ketoconazole) was 112,853 h·ng·mL^−1 and the “Cmax, Observation” value (In vivo pharmacokinetics; oral 10 mg/kg ketoconazole) was 41,300 ng·mL^−1. The “AUC, Prediction” value [3] was 108,727 h·ng·mL^−1, the “Cmax, Prediction” value [3] was 45,702 ng·mL^−1 and the “pKa, reported value” [4] was 6.5. It also gave a pKa ([5]; FaSSIF (biorelevant fluid), read-out: pKa of the fitted pH-solubility function) of 6.32 and a solubility at 24 h ([5]; FaSSIF, read-out: CU (concentration of unionized form) of the fitted pH-solubility function) of 7.88 µg/mL (≈ 14.8 µM).
